Test system: ethanol-induced ulcers
Test: Necrotising agent model: ethanol-induced ulcers
Format: in vivo, rat
Method: (B) Necrotising agent model:
Using the necrotising agent model, ethanol in this case, described by Robert el al. (Gastroenterology, 77: 433, 1979), the activity of LV-200 was compared with that of Nt at equimolar dose levels and a control group which was administered vehicle.
The table below gives the lesion indices (in ulcerated area in mm) of the three groups studied, as well as the percentage inhibition of the ulcers of the treated groups over the control group (mean values±standard error of the mean).

Q: With `CNC(=C[N+](=O)[O-])NCCSCc1csc(CN(C)C)n1` [Nt, N-methyl-N'-2-((2(dimethylaminomethyl)-4-thiazolyl)methylthio)ethyl-2-nitro-1,1-ethylenediamine] as the compound, how does the “inhibition of ulcers induced by absolute ethanol (in words)” value (absolute ethanol) read?
A: does not inhibit ulcers

Q: And the “% inhibition of the ulcers over the control group” value (ethanol, equimolar doses of LV-200 (230 mg/kg) and Nt)?
A: 0%

Q: And the “lesion index (ulcerated area), mm lesions” value (ethanol, equimolar doses of LV-200 (230 mg/kg) and Nt, mean ± standard error of the mean, control 91.2 ± 17.7, LV-200 p < 0.01 vs control, p < 0.001 versus Nt (t test))?
A: 97.7 ± 11.8 mm
